Measurements as given in ChEMBL document CHEMBL3351259, “Semi-synthesis of biologically active nisin hybrids composed of the native lanthionine ABC-fragment and a cross-stapled synthetic DE-fragment” (2014).
Converted amounts (≈) assume the structure as drawn. The source made the active and inactive calls. The rule behind the calls is not given here.

Tests used:
[1] = tested on: Bacillus subtilis; assay: Antimicrobial activity against Bacillus subtilis assessed as inhibition of bacterial growth after 24 hrs by broth micro-dilution assay; assay type: functional
[2] = Induction of membrane leakage in large unilamellar vesicles composed of 1,2-dioleoyl-sn-glycero-3-phosphocholine and 0.2% lipid II […] at 5 uM by carboxyfluorescein based fluorescence spectroscopy; assay type: functional
[3] = Binding affinity affinity to lipid II (unknown origin) by nisin competitive assay

| SMILES | MIC [1] | Activity [2] | Activity [3] |
| --- | --- | --- | --- |
| C=C1NC(=O)[C@H]([C@@H](C)CC)NC(=O)[C@@H](NC(=O)/C(=C/C)NC(=O)[C@@H](N)[C@@H](C)CC)CSC[C@@H](C(=O)N[C@@H]2C(=O)N3CCC[C@H]3C(=O)NCC(=O)N[C@H](C(=O)N[C@@H](CCCCN)C(N)=O)CS[C@H]2C)NC(=O)[C@H](CC(C)C)NC1=O | 167 µM (≈ 192 µg/mL) | inactive | – |
| C=C1NC(=O)[C@H]([C@@H](C)CC)NC(=O)[C@@H](NC(=O)/C(=C/C)NC(=O)[C@@H](N)[C@@H](C)CC)CSC[C@@H](C(=O)N[C@@H]2C(=O)N3CCC[C@H]3C(=O)NCC(=O)N[C@H](C(=O)N[C@@H](CCCCN)C(=O)N[C@@H]3C(=O)NCC(=O)N[C@@H](C)C(=O)N[C@@H](CC(C)C)C(=O)N[C@@H](CCSC)C(=O)NCC(=O)N[C@H](C(=O)N[C@@H](CC(N)=O)C(=O)NCc4cn([C@@H](CCCCN)C(=O)N[C@@H]5C/C=C/C[C@@H]6NC(=O)[C@@H](C/C=C/C[C@@H](C(=O)OC)NC(=O)[C@H](CC(N)=O)NC6=O)NC(=O)[C@H](C)NC5=O)nn4)CS[C@H]3C)CS[C@H]2C)NC(=O)[C@H](CC(C)C)NC1=O | – | inactive | Active |
| C=C1NC(=O)[C@H]([C@@H](C)CC)NC(=O)[C@@H](NC(=O)/C(=C/C)NC(=O)[C@@H](N)[C@@H](C)CC)CSC[C@@H](C(=O)N[C@@H]2C(=O)N3CCC[C@H]3C(=O)NCC(=O)N[C@H](C(=O)N[C@@H](CCCCN)C(=O)N[C@@H]3C(=O)NCC(=O)N[C@@H](C)C(=O)N[C@@H](CC(C)C)C(=O)N[C@@H](CCSC)C(=O)NCC(=O)N[C@H](C(=O)N[C@@H](CC(N)=O)C(=O)O)CS[C@H]3C)CS[C@H]2C)NC(=O)[C@H](CC(C)C)NC1=O | 6.2 µM (≈ 11.7 µg/mL) | inactive | Active |
| C=C1NC(=O)[C@H]([C@@H](C)CC)NC(=O)[C@@H](NC(=O)/C(=C/C)NC(=O)[C@@H](N)[C@@H](C)CC)CSC[C@@H](C(=O)N[C@@H]2C(=O)N3CCC[C@H]3C(=O)NCC(=O)N[C@H](C(=O)N[C@@H](CCCCN)C(=O)N[C@@H]3C(=O)NCC(=O)N[C@@H](C)C(=O)N[C@@H](CC(C)C)C(=O)N[C@@H](CCSC)C(=O)NCC(=O)N[C@H](C(=O)N[C@@H](CC(N)=O)C(=O)N[C@@H](CC(C)C)c4cn([C@@H](CCCCN)C(=O)N[C@@H]5C/C=C/C[C@@H]6NC(=O)[C@@H](C/C=C/C[C@@H](C(=O)N[C@@H](CCCCC)C(=O)NC)NC(=O)[C@H](CC(N)=O)NC6=O)NC(=O)[C@H](C)NC5=O)nn4)CS[C@H]3C)CS[C@H]2C)NC(=O)[C@H](CC(C)C)NC1=O | 4.07 µM (≈ 11.4 µg/mL) | inactive | – |
